Tested on: KRAS patient-derived spheroids with HUVEC/MSC, viability
Test: Anticancer human tumor 519858-162-T-J1-PDC patient-derived colon adenocarcinoma cell line growth inhibition [KRAS2]
Settings: for viability, T/C: stronger effect = lower value
Summary of the method: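 Combination screen of spheroid viability in tumor-cell co-cultures with endothelial (HUVEC) and mesenchymal stem cell stroma. Each agent was tested in half-log dilutions, topping at clinical Cmax or at 10 microM without a known Cmax.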

[1] = curve of first compound, second compound 0.1 µM
[2] = curve of first compound, second compound 0.316 µM
[3] = curve of first compound, second compound 1 µM
[4] = curve of first compound, second compound 3.16 µM
[5] = second compound 0.1 µM, first compound 0.0316 µM
[6] = second compound 0.1 µM, first compound 0.1 µM
[7] = second compound 0.1 µM, first compound 0.316 µM
[8] = second compound 0.1 µM, first compound 1 µM
[9] = second compound 0.1 µM, first compound 3.16 µM
[10] = second compound 0.1 µM, first compound 10 µM
[11] = second compound 0.316 µM, first compound 0.0316 µM
[12] = second compound 0.316 µM, first compound 0.1 µM
[13] = second compound 0.316 µM, first compound 0.316 µM
[14] = second compound 0.316 µM, first compound 1 µM
[15] = second compound 0.316 µM, first compound 3.16 µM
[16] = second compound 0.316 µM, first compound 10 µM
[17] = second compound 1 µM, first compound 0.0316 µM
[18] = second compound 1 µM, first compound 0.1 µM
[19] = second compound 1 µM, first compound 0.316 µM
[20] = second compound 1 µM, first compound 1 µM
[21] = second compound 1 µM, first compound 3.16 µM
[22] = second compound 1 µM, first compound 10 µM
[23] = second compound 3.16 µM, first compound 0.0316 µM
[24] = second compound 3.16 µM, first compound 0.1 µM
[25] = second compound 3.16 µM, first compound 0.316 µM
[26] = second compound 3.16 µM, first compound 1 µM
[27] = second compound 3.16 µM, first compound 3.16 µM
[28] = second compound 3.16 µM, first compound 10 µM
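Further: compound exposure lasted seven days before readout.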
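Wherever viability, T/C is given: 100% = DMSO vehicle control viability.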

| SMILES | IC50 [1] [µM] | IC50 [2] [µM] | IC50 [3] [µM] | IC50 [4] [µM] | viability, T/C [5] [%] | viability, T/C [6] [%] | viability, T/C [7] [%] | viability, T/C [8] [%] | viability, T/C [9] [%] | viability, T/C [10] [%] | viability, T/C [11] [%] | viability, T/C [12] [%] | viability, T/C [13] [%] | viability, T/C [14] [%] | viability, T/C [15] [%] | viability, T/C [16] [%] | viability, T/C [17] [%] | viability, T/C [18] [%] | viability, T/C [19] [%] | viability, T/C [20] [%] | other results |
| --- | --- | --- | --- | --- | --- | --- | --- | --- | --- | --- | --- | --- | --- | --- | --- | --- | --- | --- | --- | --- | --- |
| CC1OCC2(CCN(c3cnc(Sc4ccnc(N)c4Cl)c(N)n3)CC2)C1N (stereo unspecified) + C=CC(=O)N1CCN(c2nc(=O)n(-c3c(C)ccnc3C(C)C)c3nc(-c4c(O)cccc4F)c(F)cc23)C(C)C1 | 7.23 | > 10 | 3.16 | > 10 | 94.2 | 77.3 | 68.5 | 80.4 | 63.1 | 43.7 | 90.6 | 76 | 73.1 | 59.9 | 79.6 | 63.3 | 81.6 | 68.6 | 84.3 | 50.3 | IC50 (curve of first compound, second compound 10 µM): 3.92 µM; viability, T/C [21]: 54%; viability, T/C [22]: 49.2%; viability, T/C [23]: 67.2%; viability, T/C [24]: 101%; viability, T/C [25]: 75.7%; viability, T/C [26]: 62.5%; viability, T/C [27]: 53.3%; viability, T/C [28]: 65.4%; viability, T/C (second compound 10 µM, first compound 0.0316 µM): 56%; viability, T/C (second compound 10 µM, first compound 0.1 µM): 73%; viability, T/C (second compound 10 µM, first compound 0.316 µM): 72.3%; viability, T/C (second compound 10 µM, first compound 1 µM): 55.6%; viability, T/C (second compound 10 µM, first compound 3.16 µM): 56%; viability, T/C (second compound 10 µM, first compound 10 µM): 31.2% |
| O=C(c1cc(Cc2n[nH]c(=O)c3ccccc23)ccc1F)N1CCN(C(=O)C2CC2)CC1 | – | – | – | – | – | – | – | – | – | – | – | – | – | – | – | – | – | – | – | – | IC50 (curve of compound): > 10 µM |
| CC(C)NCC(C(=O)N1CCN(c2ncnc3c2C(C)CC3O)CC1)c1ccc(Cl)cc1 (stereo unspecified) + C=CC(=O)N1CCN(c2nc(OCC3CCCN3C)nc3c2CCN(c2cccc4cccc(C)c24)C3)CC1CC#N | > 10 | > 10 | > 10 | 1.93 | 95.2 | 91.6 | 78.4 | 78 | 90.3 | 74.6 | 64.7 | 84.2 | 75.5 | 90 | 82.5 | 87 | 72 | 72.2 | 48.3 | 70.5 | IC50 (curve of first compound, second compound 0.0316 µM): > 10 µM; viability, T/C (second compound 0.0316 µM, first compound 0.0316 µM): 84.8%; viability, T/C (second compound 0.0316 µM, first compound 0.1 µM): 84.9%; viability, T/C (second compound 0.0316 µM, first compound 0.316 µM): 79.5%; viability, T/C (second compound 0.0316 µM, first compound 1 µM): 85.4%; viability, T/C (second compound 0.0316 µM, first compound 3.16 µM): 85.9%; viability, T/C (second compound 0.0316 µM, first compound 10 µM): 77.5%; viability, T/C [21]: 81.9%; viability, T/C [22]: 83.3%; viability, T/C [23]: 70.9%; viability, T/C [24]: 55.8%; viability, T/C [25]: 80.8%; viability, T/C [26]: 55.1%; viability, T/C [27]: 50.7%; viability, T/C [28]: 41.5% |

Reference: PubChem BioAssay AID1963872 (Molecular Pharmacology Branch, DTP, NCI, 2024)
